Measurements published in patent US9809587B2, “Pesticidally active heterocyclic derivatives with sulphur containing substituents” (Syngenta Participations AG, priority 2014, dated 2017).

Legend:
Type in all cases: in vivo
[1] = test system: Plutella xylostella (Diamond Back Moth); assay: Plutella xylostella (diamond back moth), treated artificial diet; details: 120 h, application rate of 200 ppm, L2 larvae on artificial diet, 5 days after infestation, read-out: effect in at least one of the two categories (mortality or growth inhibition)
Description: Example B6: Plutella xylostella (Diamond Back Moth)
(§1) 24-well microtiter plates with artificial diet were treated with aqueous test solutions prepared from 10′000 ppm DMSO stock solutions by pipetting. After drying, the plates were infested with L2 larvae (10 to 15 per well). The samples were assessed for mortality and growth inhibition in comparison to untreated samples 5 days after infestation.
The following compounds gave an effect of at least 80% in at least one of the two categories (mortality or growth inhibition) at an application rate of 200 ppm: […]

[2] = test system: Diabrotica balteata (Corn Root Worm); assay: Diabrotica balteata (corn root worm), sprayed maize sprouts; details: 96 h, application rate of 200 ppm, L2 larvae on maize sprouts, 4 days after infestation
Description: Example B2: Diabrotica balteata (Corn Root Worm)
as §1, with “Maize sprouts, placed on an agar layer in 24-well” for “24-well”, “plates” for “plates with artificial diet”, “spraying.” for “pipetting.”, “(6” for “(10”, “10” for “15”, “4” for “5”

[3] = test system: Spodoptera littoralis (Egyqptian Cotton Leaf Worm); assay: Spodoptera littoralis (Egyptian cotton leaf worm), sprayed cotton leaf discs; details: foliar, 72 h, application rate of 200 ppm, L1 larvae on cotton leaf discs, 3 days after infestation
Description: Example B7: Spodoptera littoralis (Egyqptian Cotton Leaf Worm)
Cotton leaf discs were placed on agar in 24-well microtiter plates and sprayed with aqueous test solutions prepared from 10′000 ppm DMSO stock solutions. After drying the leaf discs were infested with five L1 larvae. The samples were assessed for mortality, anti-feedant effect, and growth inhibition in comparison to untreated samples 3 days after infestation. Control of Spodoptera littoralis by a test sample is when at least one of mortality, anti-feedant effect, and growth inhibition is higher than the untreated sample.

[4] = test system: Myzus persicae (Green Peach Aphid); assay: Myzus persicae (green peach aphid), sprayed sunflower leaf discs; details: foliar, 144 h, application rate of 200 ppm, mixed ages on sunflower leaf discs, 6 days after infestation
Description: Example B4: Myzus persicae (Green Peach Aphid)
Sunflower leaf discs were placed on agar in a 24-well microtiter plate and sprayed with aqueous test solutions prepared from 10′000 ppm DMSO stock solutions. After drying, the leaf discs were infested with an aphid population of mixed ages. The samples were assessed for mortality 6 days after infestation.

[5] = test system: Euschistus heros (Neotropical Brown Stink Bug); assay: Euschistus heros (neotropical brown stink bug), sprayed soybean leaf; details: 120 h, application rate of 200 ppm, N-2 nymphs on soybean leaf, 5 days after infestation
Description: Example B3: Euschistus heros (Neotropical Brown Stink Bug)
Soybean leaf on agar in 24-well microtiter plates were sprayed with aqueous test solutions prepared from 10′000 ppm DMSO stock solutions. After drying the leaf were infested with N-2 nymphs. The samples were assessed for mortality in comparison to untreated samples 5 days after infestation.

CCS(=O)(=O)c1cc(-c2ccc(OC)nc2)cnc1-c1nc2cc(C(F)(F)F)ncc2n1C [Compound P1, 2-[3-ethylsulfonyl-5-(6-methoxy-3-pyridyl)-2-pyridyl]-3-methyl-6-(trifluoromethyl)imidazo[4,5-c]pyridine]
≥ 80%: percent effect (mortality or growth inhibition) at 200 ppm [1] | mortality at 200 ppm [2] | percent control (mortality, anti-feedant effect or growth inhibition) at 200 ppm [3] | mortality at 200 ppm [4]

CCS(=O)(=O)c1cc(-c2cnc(Cl)c(C)c2)cnc1-c1nc2cc(C(F)(F)F)ncc2n1C [Compound P4]
≥ 80%: mortality at 200 ppm [5] | percent effect (mortality or growth inhibition) at 200 ppm [1] | percent control (mortality, anti-feedant effect or growth inhibition) at 200 ppm [3] | mortality at 200 ppm [4]

CCS(=O)(=O)c1cc(-c2cncc3ccccc23)cnc1-c1nc2cc(C(F)(F)F)ncc2n1C [Compound P7]
≥ 80%: percent effect (mortality or growth inhibition) at 200 ppm [1] | mortality at 200 ppm [2] | percent control (mortality, anti-feedant effect or growth inhibition) at 200 ppm [3]

CCS(=O)(=O)c1cc(-c2ccc(-c3ccc(F)cc3)nc2)cnc1-c1nc2cc(C(F)(F)F)ncc2n1C [Compound P12]
≥ 80%: mortality at 200 ppm [5] | percent effect (mortality or growth inhibition) at 200 ppm [1] | mortality at 200 ppm [2] | percent control (mortality, anti-feedant effect or growth inhibition) at 200 ppm [3] | mortality at 200 ppm [4]

CCSc1cc(-n2nc(C)cc2C)cnc1-c1nc2cc(C(F)(F)F)ncc2n1C [Compound P13]
≥ 80%: mortality at 200 ppm [2]

CCSc1cc(-n2cc(Cl)cn2)cnc1-c1nc2cc(C(F)(F)F)ncc2n1C [Compound P14, 2-[5-(4-chloropyrazol-1-yl)-3-ethylsulfanyl-2-pyridyl]-3-methyl-6-(trifluoromethyl)imidazo[4,5-c]pyridine]
≥ 80%: percent effect (mortality or growth inhibition) at 200 ppm [1] | mortality at 200 ppm [2] | percent control (mortality, anti-feedant effect or growth inhibition) at 200 ppm [3]

CCS(=O)(=O)c1cc(-n2nc(C)cc2C)cnc1-c1nc2cc(C(F)(F)F)ncc2n1C [Compound P15]
≥ 80%: mortality at 200 ppm [5] | percent effect (mortality or growth inhibition) at 200 ppm [1] | mortality at 200 ppm [2] | percent control (mortality, anti-feedant effect or growth inhibition) at 200 ppm [3] | mortality at 200 ppm [4]

CCS(=O)(=O)c1cc(-c2nc(C)cc(C3CC3)n2)cnc1-c1nc2cc(C(F)(F)F)ncc2n1C [Compound P23, 2-[5-(4-cyclopropyl-6-methyl-pyrimidin-2-yl)-3-ethylsulfonyl-2-pyridyl]-3-methyl-6-(trifluoromethyl)imidazo[4,5-c]pyridine]
≥ 80%: mortality at 200 ppm [5] | percent effect (mortality or growth inhibition) at 200 ppm [1] | mortality at 200 ppm [2] | percent control (mortality, anti-feedant effect or growth inhibition) at 200 ppm [3] | mortality at 200 ppm [4]

CCS(=O)(=O)c1cc(-n2ncc3ccccc32)cnc1-c1nc2cc(C(F)(F)F)ncc2n1C [Compound P24]
≥ 80%: percent effect (mortality or growth inhibition) at 200 ppm [1] | percent control (mortality, anti-feedant effect or growth inhibition) at 200 ppm [3]

CCS(=O)(=O)c1cc(-n2nc(C(F)(F)F)cc2-c2ccc(F)cc2)cnc1-c1nc2cc(C(F)(F)F)ncc2n1C [Compound P28]
≥ 80%: percent effect (mortality or growth inhibition) at 200 ppm [1] | mortality at 200 ppm [2] | percent control (mortality, anti-feedant effect or growth inhibition) at 200 ppm [3]

CCS(=O)(=O)c1cc(-n2ncc3cnc(C(F)(F)F)cc32)cnc1-c1nc2cc(C(F)(F)F)ncc2n1C [Compound P29]
≥ 80%: percent effect (mortality or growth inhibition) at 200 ppm [1] | mortality at 200 ppm [2] | percent control (mortality, anti-feedant effect or growth inhibition) at 200 ppm [3]

CCS(=O)(=O)c1cc(-c2c(C(F)(F)F)n[nH]c2C)cnc1-c1nc2cc(C(F)(F)F)ncc2n1C [Compound P30]
≥ 80%: mortality at 200 ppm [5] | mortality at 200 ppm [2] | mortality at 200 ppm [4]

CCS(=O)(=O)c1cc(-c2cnc3nc(C(F)(F)F)ccn23)cnc1-c1nc2cc(C(F)(F)F)ncc2n1C [Compound P36]
≥ 80%: mortality at 200 ppm [5] | percent effect (mortality or growth inhibition) at 200 ppm [1] | mortality at 200 ppm [2] | percent control (mortality, anti-feedant effect or growth inhibition) at 200 ppm [3] | mortality at 200 ppm [4]

CCS(=O)(=O)c1cc(-c2cnc3nc(C(F)(F)F)cnn23)cnc1-c1nc2cc(C(F)(F)F)ncc2n1C [Compound P38]
≥ 80%: mortality at 200 ppm [5] | percent effect (mortality or growth inhibition) at 200 ppm [1] | mortality at 200 ppm [2] | percent control (mortality, anti-feedant effect or growth inhibition) at 200 ppm [3]

CCS(=O)(=O)c1cc(-c2ccc3nccn3c2C)cnc1-c1nc2cc(C(F)(F)F)ncc2n1C [Compound P42]
≥ 80%: mortality at 200 ppm [5] | mortality at 200 ppm [4]

CCS(=O)(=O)c1cc(-c2ncccc2OC(F)F)cnc1-c1nc2cc(C(F)(F)F)ncc2n1C [Compound P43]
≥ 80%: mortality at 200 ppm [5] | percent effect (mortality or growth inhibition) at 200 ppm [1] | mortality at 200 ppm [2] | percent control (mortality, anti-feedant effect or growth inhibition) at 200 ppm [3] | mortality at 200 ppm [4]

CCS(=O)(=O)c1cc(-c2sccc2C)cnc1-c1nc2cc(C(F)(F)F)ncc2n1C [Compound P48]
≥ 80%: percent effect (mortality or growth inhibition) at 200 ppm [1] | mortality at 200 ppm [2] | percent control (mortality, anti-feedant effect or growth inhibition) at 200 ppm [3]

CCS(=O)(=O)c1cc(-c2cnc3ccccn23)cnc1-c1nc2cc(C(F)(F)F)ncc2n1C [Compound P51]
≥ 80%: mortality at 200 ppm [5] | percent effect (mortality or growth inhibition) at 200 ppm [1] | percent control (mortality, anti-feedant effect or growth inhibition) at 200 ppm [3] | mortality at 200 ppm [4]

CCS(=O)(=O)c1cc(-c2ccc(C)cn2)cnc1-c1nc2cc(C(F)(F)F)ncc2n1C [Compound P55]
≥ 80%: mortality at 200 ppm [5] | percent effect (mortality or growth inhibition) at 200 ppm [1] | mortality at 200 ppm [2] | percent control (mortality, anti-feedant effect or growth inhibition) at 200 ppm [3] | mortality at 200 ppm [4]

CCS(=O)(=O)c1cc(-c2ccc3ccccc3n2)cnc1-c1nc2cc(C(F)(F)F)ncc2n1C [Compound P62]
≥ 80%: mortality at 200 ppm [5] | percent effect (mortality or growth inhibition) at 200 ppm [1] | mortality at 200 ppm [4]

CCS(=O)(=O)c1cc(-c2ncc(N)nc2C)cnc1-c1nc2cc(C(F)(F)F)ncc2n1C [Compound P63]
≥ 80%: mortality at 200 ppm [5] | percent effect (mortality or growth inhibition) at 200 ppm [1] | percent control (mortality, anti-feedant effect or growth inhibition) at 200 ppm [3] | mortality at 200 ppm [4]

CCS(=O)(=O)c1cc(-c2ccsc2C)cnc1-c1nc2cc(C(F)(F)F)ncc2n1C [Compound P68]
≥ 80%: mortality at 200 ppm [5] | percent control (mortality, anti-feedant effect or growth inhibition) at 200 ppm [3]

CCS(=O)(=O)c1cc(-c2ccc(C)s2)cnc1-c1nc2cc(C(F)(F)F)ncc2n1C [Compound P69]
≥ 80%: mortality at 200 ppm [5] | percent effect (mortality or growth inhibition) at 200 ppm [1] | percent control (mortality, anti-feedant effect or growth inhibition) at 200 ppm [3] | mortality at 200 ppm [4]

CCS(=O)(=O)c1cc(-c2ccncc2C#N)cnc1-c1nc2cc(C(F)(F)F)ncc2n1C [Compound P73]
≥ 80%: mortality at 200 ppm [5] | percent effect (mortality or growth inhibition) at 200 ppm [1] | mortality at 200 ppm [2] | mortality at 200 ppm [4]

CCS(=O)(=O)c1cc(-c2ccc(SC)nc2)cnc1-c1nc2cc(C(F)(F)F)ncc2n1C [Compound P75]
≥ 80%: mortality at 200 ppm [5] | percent effect (mortality or growth inhibition) at 200 ppm [1] | mortality at 200 ppm [2] | mortality at 200 ppm [4]

CCS(=O)(=O)c1cc(-c2ccc3[nH]c(=O)[nH]c3c2)cnc1-c1nc2cc(C(F)(F)F)ncc2n1C [Compound P76]
≥ 80%: mortality at 200 ppm [2]

CCS(=O)(=O)c1cc(-c2cc(C)oc2C#N)cnc1-c1nc2cc(C(F)(F)F)ncc2n1C [Compound P78]
≥ 80%: mortality at 200 ppm [2] | mortality at 200 ppm [4]

CCS(=O)(=O)c1cc(-c2cnc(O)nc2O)cnc1-c1nc2cc(C(F)(F)F)ncc2n1C [Compound P79]
≥ 80%: percent effect (mortality or growth inhibition) at 200 ppm [1]

CCS(=O)(=O)c1cc(-c2ncc(OC)cn2)cnc1-c1nc2cc(C(F)(F)F)ncc2n1C [Compound P97]
≥ 80%: mortality at 200 ppm [5] | percent effect (mortality or growth inhibition) at 200 ppm [1] | percent control (mortality, anti-feedant effect or growth inhibition) at 200 ppm [3] | mortality at 200 ppm [4]

CCS(=O)(=O)c1cc(-c2ccnc(C#N)c2)cnc1-c1nc2cc(C(F)(F)F)ncc2n1C [Compound P99]
≥ 80%: mortality at 200 ppm [5] | percent effect (mortality or growth inhibition) at 200 ppm [1] | mortality at 200 ppm [2]

CCS(=O)(=O)c1cc(-c2ccnc(C#N)n2)cnc1-c1nc2cc(C(F)(F)F)ncc2n1C [Compound P107]
≥ 80%: percent effect (mortality or growth inhibition) at 200 ppm [1] | mortality at 200 ppm [2] | percent control (mortality, anti-feedant effect or growth inhibition) at 200 ppm [3]
